Measurements: patent EP0639197B1, “EXCITATORY AMINO ACID ANTAGONISTS” (GUILFORD PHARMACEUTICALS INC., priority 1990, dated 1992)

Tests used:
[1] = Inhibition of NMDA-induced seizures after i.c.v. administration; type: in vivo, male CF-1 mice; conditions: mouse, in vivo, icv or intrathecal; ratio of rotorod TD50 to NMDA-seizure ED50; ICV administration
Method: (§1) Anticonvulsant studies: The potency of the isomers of APCA to inhibit NMDA-induced seizures was evaluated using male CF-1 mice. All drugs were dissolved in isotonic saline and the pH adjusted to neutrality using NaOH. The test compounds were injected intracerebroventricularly (i.c.v.) in a final volume of […]. N-Methyl-D-aspartate (250mg/kg of body weight) was dissolved in saline (1% v/w of body weight) and injected intraperitoneally (i.p.) 15 minutes following the administration of the test agent. […] NMDA-induced seizures were defined as presence of tonic/clonic activity accompanied by hindlimb extension and death. Rotorod: Animals used for seizure studies were evaluated for motor impairment using the rotorod test. Before use all animals were tested for their ability to maintain equilibrium for 60 seconds on a 1-inch knurled bar rotating at a speed of 6 to 7 rpm. Each animal was given three separate trials. Animals performing the task in any of the three trials were used for further study.

NMDA-induced seizures = experiment: as above; type: in vivo, male CF-1 mice; conditions: for ED50: Mus musculus, central, potency to inhibit NMDA-induced seizures, ICV administration 15 minutes before NMDA 250mg/kg i.p., mixtures enriched in the stated isomer, less than about 95% pure
Method: as §1

[2] = Rotorod test for motor impairment after i.c.v. administration; set-up: species or system male CF-1 mice; conditions: mouse, in vivo, icv or intrathecal; potency to impair rotorod performance; tested 10 minutes after i.c.v. administration; enriched mixtures, less than about 95% pure
Method: as §1
Animals were tested for impairment 10 minutes after i.c.v. administration of the test agent and 5 minutes before administration of the seizure-inducing agent. Each animal was tested on a maximum of three trials; completion of any one of the trials was screened as passing.

NMDA receptors = experiment: Inhibition of specific binding of [3H]CGS-19755 to rat forebrain membranes; conditions: for IC50: [3H]CGS-19755 4.62 x 10^-9 M, rat forebrain membranes, 20min, 23 C, enriched mixtures, less than about 95% pure
Method: Binding studies: The potency of compounds to inhibit the specific binding of [^3H]CGS-19755 (specific activity 50.5 Ci/mmol, New England Nuclear, Boston, MA) to NMDA receptors was performed as described by Ferkany et al., (J. Pharmacology and Experimental Therapeutics, 1989, 250:100-109). Briefly, animals were sacrificed by decapitation, the forebrain removed immediately and the "buffy coat" prepared as described by Enna and Snyder (Enna, S. and Snyder, S.H., Molecular Pharmacology, 1977, 13:422-433). Crude synaptic membranes were stored frozen (-20 °C) until used. On the day of the assay, membranes were thawed to room temperature and homogenized in 20 vol (w/v) of assay buffer. The homogenate was centrifuged (48,000 x g; 10min; 4 °C), the supernatant decanted and the pellet resuspended as before. The procedure was repeated until the tissue had been washed 4 times to remove endogenous inhibitors.
For assay, the final pellet was resuspended in sufficient buffer (Tris HCl, 0.05M, pH 7.1, 23 °C) to yield a tissue concentration of 0.2mg of protein per ml. Two-milliliter portions of the suspension were added in duplicate to tubes containing ligand (final concentration = 4.62 x 10^- ^9 M) and the compound of interest ([…]). After an incubation of 20min (23 °C), the reaction was terminated by centrifugation, the supernatant was decanted and the pellets washed rapidly and superficially with 2 x 2.5ml of ice-cold buffer. Tissue was solubilized in Protosol (0.5 ml, New England Nuclear, Boston, MA) and after the addition of scintillant, radioactivity was determined using standard procedures.
Non specific binding was determined using L-glutamate at a final concentration of 10^-3 M. Routinely, IC50s were determined using 8-12 concentrations of inhibitor.

Compound	selectivity ratio [1]	ED50 (NMDA-induced seizures) [mg/kg]	TD50 at 10 min [2] [mg/kg]	IC50 (NMDA receptors) [nM]	fold more potent than the next most potent isomer (NMDA-induced seizures; in vivo effects of Table 1)	fold more potent than cis isomer C, the next most potent isomer (NMDA receptors; binding data of Table 2)
O=C(O)C1CN(CCCP(=O)(O)O)CCN1 (racemic) [(±) CPP, 4-(3-phosphonopropyl)-2-piperazine carboxylic acid, reference compound]	4.5	2.2	10	190 ± 15		
O=C(O)[C@H]1C[C@@H](CP(=O)(O)O)CCN1 (relative stereo) [CGS-19755, cis-4-(phosphonomethyl)-2-piperidinecarboxylic acid, reference compound]	6.4	2.64	17			
N[C@H](C[C@H]1CCCC[C@H]1CCP(=O)(O)O)C(=O)O (single isomer, unassigned) [cis isomer A, 2-amino-4,5-(1,2-cyclohexyl)-7-phosphonoheptanoic acid]	30.5	1.05	32	270 ± 12	at least 25 fold	approximately 8 fold
